Assay results as given in patent publication US7282325B2, “Method of preparing pharmaceutical compositions” (Solvay Pharmaceuticals GmbH, priority 2000, dated 2007).

Key:
[1] = biological target: T1, carboanhydrase of the subtype Va of mice (mCA Va) (Mus musculus, UniProt P23589); assay: 4-nitrophenylacetate-esterase enzyme activity test, mCA Va used at 120 nM; assay type: biochemical; conditions: mCA Va obtained by biotechnological processes; enzyme concentration 120 nM; read-out: inhibitory action on carboanhydrase of the subtype Va of mice (IC50)
T1 construct: made in house; host or cells: Escherichia coli BL 21 (DE3)
T1 sequence (P23589 30-299): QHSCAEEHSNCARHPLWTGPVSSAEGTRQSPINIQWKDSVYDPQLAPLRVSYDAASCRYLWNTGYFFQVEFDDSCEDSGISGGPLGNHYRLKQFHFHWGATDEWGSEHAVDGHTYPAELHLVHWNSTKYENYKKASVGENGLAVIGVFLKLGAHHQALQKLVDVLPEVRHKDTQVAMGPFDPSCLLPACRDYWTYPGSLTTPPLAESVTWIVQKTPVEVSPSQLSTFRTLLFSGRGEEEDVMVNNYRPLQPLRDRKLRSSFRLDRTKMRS
Description: In a departure from the test procedure described by Scozzafava et al, in this case the enzyme mCA Va was used in a concentration of 120 nM. The mCA Va was obtained in known manner by the method described by H. R. Heck et al., Journal of Biological Chemistry 269 (1994) 24742-24746. To this end, the strain of bacteria Escherichia coli BL 21 (DE3) was used, which was used with a plasmid vector which contained the sequence coding for mCA Va under the control of the T7 promoter which can be induced by isopropyl-β-D-thiogalactopyranoside (IPTG). The bacterial culture was inoculated at 37° C. with stirring into a Luria-Bertani liquid medium containing ampicillin (100 μg/ml) and its growth was monitored by spectrophotometry at 600 nm. Once the bacterial culture had entered the exponential growth phase, IPTG was added in a final concentration of 1 mmol/liter. After 3 hours incubation time (37° C. with stirring), the bacterial culture was centrifuged at 7000×g for 15 minutes, and the supernatant was discarded. The resulting pellet was taken up in 0.1 vol twice-distilled water, and lysozyme (100 μg/ml) was added thereto. The cell lysis took place under ultrasound treatment. […] After each ultrasound pulse, the absorption of the samples was determined at 600 nm, for which each 100 μl of a-sample was diluted with 900 μl twice-distilled water. […]

[2] = test system: of the 3T3-F442A cell line; assay: Test model according to Hazen et al.: formation of acid-soluble metabolic products of the citric acid cycle; assay type: cell-based; conditions: Adipocyte; rat adipocytes of the 3T3-F442A cell line; read-out: inhibitory effect on the formation of acid-soluble metabolic products of the citric acid cycle (IC50)
Description: In a second embodiment of the method according to the invention, compounds suitable for the treatment and/or prophylaxis of obesity can be discovered by selecting those compounds which are capable of reducing the amount of metabolic products formed in the citric acid cycle of isolated living mammalian cells or of lipidic secondary products of the citric acid cycle. […] Citrate is preferred. Furthermore, lipidic secondary products of the citric acid cycle, such as free fatty acids, are suitable as metabolic products. Lastly, in this second embodiment, the ability of the test compounds to inhibit the activity of at least one carboanhydrase occurring in mammals is also determined, although the test model used is set up differently from the first embodiment mentioned. The process of the second embodiment is based on the principle of determining in known manner the uptake of radioactivity from substrates of the citric acid cycle labeled with the ^14C-isotope into metabolic intermediate products or secondary products of the citric acid cycle of isolated, living mammalian cells and comparing the results obtained with the results obtained under otherwise identical conditions, but under the influence of CA-inhibitory compounds. Isolated living cells of rodents such as rats, mice or guinea-pigs, or of man, are preferably used in this variant of the method. Human cells are preferred. […]

Compound: CC1(C)O[C@@H]2[C@@H](CO[C@@]3(COS(N)(=O)=O)OC(C)(C)O[C@@H]23)O1 [topiramate]
- IC50 [1]: 74 nM
- IC50 [2]: 348 nM
